Source: patent publication US20060201053A1, “Barrier preventing wood pest access to wooden structures” (priority 2000, published 2006)
Marks after values point to notes of the source that are not given here.

Experiments:
Format in all cases: physicochemical
[1] = Release rate of pesticides from controlled release devices, one inch squares of 1/8 inch sheets (Example 3)
Description: Controlled release devices were made and tested to obtain their release rates. All thermoplastic polymers were formulated with 10 percent pesticide, 3 or 7 percent carbon black to absorb liquid pesticide, and 83 to 87 percent by weight of polymer and injection molded into thin sheets about ⅛ inch thick. […] The devices made from the remaining pesticides and thermoplastic polymers contained 7 percent of carbon black.
The devices made from S-113 urethane (a thermoset polymer) were made from a polymer mix containing 60% S-113, 40% castor oil and […] of TIPA catalyst by weight. The polymer mix comprised 90% of the total weight of the device. The pesticide, deltamethrin, comprised the remaining 10% of the device. No carbon black was used in this device. The polymer/pesticide mixture was cast into a ⅛ inch thick sheet and heated at about 60° C. for about 40 to 60 minutes to cure the cast sheet.
One inch squares were then cut from the thin sheets that were injection molded or cast and the squares were tested for release rates.

[2] = Release rate of pyrethrin from polymer systems (Example 2); conditions: Pyrethrin I content 10%, 40° C.
Protocol: Studies were also conducted with similar polymer systems as in Example 1 but with 80% pure pyrethrin.

[3] = Effect of carbon black binding carrier on release rate (Example 6); conditions: active chemical 5 wt. %, high density polyethylene (MA 778-000), 6 weeks after fabrication
Protocol: Release rates were measured at 6 weeks after fabrication wherein samples were wiped weekly to remove surface accumulation of released active chemical.

[4] = Release rate of lambda cyhalothrin from multi-layer barrier film
Description: The release rate of bioactive chemicals from the bonding layer 126 to the other layers is greater than the release rate of bioactive chemicals from the barrier film 110 to the exterior of the barrier film 110.

[5] = Release rate versus lambda cyhalothrin concentration and polymer combination (Example 4)
Protocol: An experiment was conducted to determine the effect of lambda cyhalothrin (pyrethroid) concentration and insecticide/polymer combination on release rate of insecticide from the polymer.

[6] = Thermal decomposition of the pesticide during processing
Protocol: To have a safety cushion for operating conditions, it is beneficial to have a processing temperature of approximately 150° C.
(§1) The polymers evaluated included low melt polyethylene, polyurethane, two epoxies, silicone rubber, and a low melt polyethylene high in waxes to reduce thermal decomposition of the chlorpyrifos.

[7] = Release rate of 10 wt. % pyrethroid impregnated polymers (Example 5)
[8] = Release rate of chlorpyrifos from polymer devices (Example 1); conditions: 50° C.
Protocol: Experiments were conducted to determine the release rate of chlorpyrifos. Loading rates for the insecticide were either 5 wt. % (weight percent) or 10 wt. % depending on the polymer. Release rates were determined for all devices at 50° C.
as §1
Release rates ranged from 10 μg/cm^2/day for the silicone rubber to 0.3 μg/cm^2/day for Epoxy B.

[9] = Polyethylene MA 778-000, 10 percent pesticide
[10] = Polyurethane 2200, 10 percent pesticide
[11] = Polyurethane 3100, 10 percent pesticide

For CC1(C)[C@H](C(=O)O[C@H](C#N)c2cccc(Oc3ccccc3)c2)[C@@H]1C=C(Br)Br [Deltamethrin], the “Release Rate” value ([1]; Alipmtic PS-49-100, 10 percent pesticide) was 7.2 μg/cm^2/day, the “Release Rate” value ([1]; Aromatic 80A, 10 percent pesticide) was 16.8 μg/cm^2/day and the “Release Rate” value ([1]; Pellethane 2102-55D, 10 percent pesticide) was 8.0 μg/cm^2/day. The “Release Rate” value ([1]; Pellethane 2102-80A, 10 percent pesticide) was 8.8 μg/cm^2/day and the “Release Rate” value ([1]; S-113 urethane, 10% pesticide, no carbon black) was 25.2 μg/cm^2/day.
With C=C/C=C\CC1=C(C)[C@@H](OC(=O)[C@@H]2[C@@H](C=C(C)C)C2(C)C)CC1=O [Pyrethrin I] the “Release Rate” value ([2]; Epoxy A) was 0.5 ± 0.2 μg/cm^2/day, the “Release Rate” value ([2]; Epoxy B) was 0.2 ± 0.1 μg/cm^2/day and the “Release Rate” value ([2]; Silicone) was 21.2 ± 5.4 μg/cm^2/day. The “Release Rate” value ([2]; Urethane) was 15.7 ± 7.1 μg/cm^2/day.
For CC1(C)[C@H](C(=O)O[C@H](C#N)c2cccc(Oc3ccccc3)c2)[C@@H]1/C=C(\Cl)C(F)(F)F (racemic) [Lambda cyhalothrin], the “Release Rate” value ([3]; carbon black 0 wt. %) was 1.78 μg/cm^2/day, the “Release Rate” value ([3]; carbon black 10 wt. %) was 0.81 μg/cm^2/day and the “Release Rate” value ([3]; carbon black 20 wt. %) was 0.61 μg/cm^2/day. The “release rate from barrier film” value ([4]; preferred eight-layer embodiment) was “less than 0.002 μg per square centimeter of film per day”, the “release rate from barrier film” value ([4]; six-layer embodiment) was “less than 0.002 μg per square centimeter of film per day” and the “Release Rate” value ([1]; EVA 763, 10 percent pesticide) was 27.3 μg/cm^2/day. The “Release Rate” value [1, 9] was 4.6 μg/cm^2/day, the “Release Rate” value [1, 10] was 0.7 μg/cm^2/day and the “Release Rate” value [1, 11] was 0.4 μg/cm^2/day. The “Pyrethroid Release Rate” value ([5]; Ethylvinyl Acetate (EVA), pyrethroid 1 wt. %) was 0.3 mg/cm^2/da, the “Pyrethroid Release Rate” value ([5]; Ethylvinyl Acetate (EVA), pyrethroid 5 wt. %) was 2.2 mg/cm^2/da and the “Pyrethroid Release Rate” value ([5]; Ethylvinyl Acetate (EVA), pyrethroid 10 wt. %) was 2.5 mg/cm^2/da. The “Pyrethroid Release Rate” value ([5]; Polyurethane, pyrethroid 1 wt. %) was 0.9 mg/cm^2/da, the “Pyrethroid Release Rate” value ([5]; Polyurethane, pyrethroid 5 wt. %) was 4.4 mg/cm^2/da and the “Pyrethroid Release Rate” value ([5]; Polyurethane, pyrethroid 10 wt. %) was 8.3 mg/cm^2/da. For the same compound, the “Pyrethroid Release Rate” value ([5]; Polyurethane/EVA (50/50), pyrethroid 1 wt. %) was 2.6 mg/cm^2/da, the “Pyrethroid Release Rate” value ([5]; Polyurethane/EVA (50/50), pyrethroid 5 wt. %) was 7.2 mg/cm^2/da and the “Pyrethroid Release Rate” value ([5]; Polyurethane/EVA (50/50), pyrethroid 10 wt. %) was 9.1 mg/cm^2/da. For the same compound, the “temperature above which thermal decomposition and volatilization occurs” value ([6]; in the manufacturing process) was greater than 160 °C.
For CC1(C)C(C=C(Cl)Cl)C1C(=O)OCc1cccc(Oc2ccccc2)c1 (stereo not shown) [Permethrin], the “Release Rate” value ([1]; EVA 763, 10 percent pesticide) was 28.5 μg/cm^2/day, the “Release Rate” value [1, 9] was 4.0 μg/cm^2/day and the “Release Rate” value [1, 10] was 1.3 μg/cm^2/day. For the same compound, the “Release Rate” value [1, 11] was 1.4 μg/cm^2/day, the “Release Rate” value ([7]; Ethylvinyl acetate) was 3.9 mg/cm^2/da and the “Release Rate” value ([7]; Polyethylene) was 1.4 mg/cm^2/da.
With CC1(C)C(C=C(Cl)Cl)C1C(=O)OC(C#N)c1cccc(Oc2ccccc2)c1 (stereo not shown) [Cypermethrin] the “Release Rate” value ([1]; EVA 763, 10 percent pesticide) was 27.3 μg/cm^2/day, the “Release Rate” value [1, 9] was 4.6 μg/cm^2/day and the “Release Rate” value [1, 10] was 0.7 μg/cm^2/day. The “Release Rate” value [1, 11] was 0.4 μg/cm^2/day.
In the case of CCOP(=S)(OCC)Oc1nc(Cl)c(Cl)cc1Cl [Chlorpyrifos, chlorpyrifos], the “Release Rate” value ([8]; Epoxy A, chlorpyrifos content 5%) is reported as less than 0.1 μg/cm^2/da, the “Release Rate” value ([8]; Epoxy B, chlorpyrifos content 10%) is reported as 0.3 ± 0.1 μg/cm^2/da and the “Release Rate” value ([8]; Epoxy B, chlorpyrifos content 10%, listed as chlorpyrifos) is reported as 0.3 μg/cm^2/da. The “Release Rate” value ([8]; PE + Wax, chlorpyrifos content 10%) was 1.9 ± 0.3 μg/cm^2/da, the “Release Rate” value ([8]; Polyurethane, chlorpyrifos content 5%, material exhibited excessive cracking) was 2.1 ± 1.4^b μg/cm^2/da and the “Release Rate” value ([8]; Silicone, chlorpyrifos content 5%) was 10.3 ± 3.5 μg/cm^2/da. For the same compound, the “Release Rate” value ([8]; Silicone, chlorpyrifos content 5%, listed as chlorpyrifos) was 10 μg/cm^2/da, the “Release Rate” value ([8]; Urethane, chlorpyrifos content 10%) was 1.0 ± 0.3 μg/cm^2/da and the “temperature above which excessive thermal decomposition occurred” value ([6]; polymer processing) was greater than 240 °C.
With Cc1c(F)c(F)c(COC(=O)[C@@H]2[C@H](/C=C(\Cl)C(F)(F)F)C2(C)C)c(F)c1F (racemic) [Tefluthrin] the “Release Rate” value ([3]; carbon black 0 wt. %) was 3.13 μg/cm^2/day, the “Release Rate” value ([3]; carbon black 10 wt. %) was 0.71 μg/cm^2/day and the “Release Rate” value ([1]; EVA 763, 10 percent pesticide) was 40.4 μg/cm^2/day. For the same compound, the “Release Rate” value [1, 9] was 27.0 μg/cm^2/day, the “Release Rate” value [1, 10] was 25.0 μg/cm^2/day and the “Release Rate” value [1, 11] was 6.4 μg/cm^2/day. For the same compound, the “Release Rate” value ([7]; Ethylvinyl acetate) was 4.3 mg/cm^2/da and the “Release Rate” value ([7]; Polyethylene) was 2.2 mg/cm^2/da.
